Laboratory results published in PubChem BioAssay (NCI).
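A five-concentration, 48-hour dose response in 96-well plates underlies each endpoint, interpolated linearly between surrounding concentrations. GI50 marks 50% less growth. TGI marks complete inhibition of growth.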

Legend:
Test in all cases: inhibition of tumour cell growth, NCI panel, 48 h
[1] = system: NCI-H460 lung
[2] = system: SF-268 CNS
[3] = system: K-562 leukemia
[4] = system: UACC-62 melanoma
[5] = system: OVCAR-8 ovarian
[6] = system: SK-MEL-5 melanoma
[7] = system: HOP-62 NSCLC
[8] = system: NCI/ADR-RES ovarian
[9] = system: T-47D breast
[10] = system: NCI-H23 lung
[11] = system: LOX IMVI melanoma
[12] = system: HOP-92 NSCLC
[13] = system: UO-31 renal
[14] = system: HCT-116 colon
[15] = system: OVCAR-5 ovarian
[16] = system: HS 578T breast
[17] = system: KM12 colon
[18] = system: HCC-2998 colon
[19] = system: OVCAR-4 ovarian
[20] = system: COLO 205 colon
[21] = system: HT29 colon
[22] = system: SN12C renal
[23] = system: HL-60(TB) leukemia
[24] = system: SF-539 CNS
[25] = system: SNB-75 CNS
[26] = system: IGROV1 ovarian
[27] = system: U251 CNS
[28] = system: BT-549 breast
[29] = system: 786-0 renal
[30] = system: UACC-257 melanoma
[31] = system: RXF 393 renal
[32] = system: NCI-H226 lung
[33] = system: SNB-19 CNS
[34] = system: HCT-15 colon
[35] = system: RPMI-8226 leukemia
[36] = system: SF-295 CNS
[37] = system: PC-3 prostate
[38] = system: MALME-3M melanoma
[39] = system: SK-MEL-2 melanoma
[40] = system: CCRF-CEM leukemia
[41] = system: SK-MEL-28 melanoma
[42] = system: A498 renal
[43] = system: A549 NSCLC
[44] = system: MCF7 breast
[45] = system: M14 melanoma
[46] = system: DU-145 prostate
[47] = system: SK-OV-3 ovarian
[48] = system: SW-620 colon
[49] = system: CAKI-1 renal
[50] = system: EKVX NSCLC
[51] = system: ACHN renal
[52] = system: MDA-MB-231 breast
[53] = system: TK-10 renal
[54] = system: MDA-MB-435
[55] = system: NCI-H522 lung

C#Cc1nc(/C=C/C(=O)NO)cs1
GI50 [1]: 3.15 µM | TGI [1]: 19.4 µM | GI50 [2]: 2.24 µM | TGI [2]: 5.08 µM | GI50 [3]: 3.01 µM | TGI [3]: 12.8 µM | GI50 [4]: 2.14 µM | TGI [4]: 8.56 µM | GI50 [5]: 2.24 µM | TGI [5]: 11.5 µM | GI50 [6]: 3.6 µM | TGI [6]: 14 µM | GI50 [7]: 2.76 µM | TGI [7]: 15 µM | GI50 [8]: 1.15 µM | TGI [8]: 34.1 µM | GI50 [9]: 2.17 µM | TGI [9]: 7.44 µM | GI50 [10]: 1.3 µM | TGI [10]: 2.71 µM | GI50 [11]: 0.171 µM | TGI [11]: 0.326 µM | GI50 [12]: 1.43 µM | TGI [12]: 3 µM | GI50 [13]: 0.182 µM | TGI [13]: 0.341 µM | GI50 [14]: 1.56 µM | TGI [14]: 3.58 µM | GI50 [15]: 2.34 µM | TGI [15]: 6.11 µM | GI50 [16]: 2.04 µM | TGI [16]: 7.62 µM | GI50 [17]: 3.51 µM | TGI [17]: 14.5 µM | GI50 [18]: 12.7 µM | TGI [18]: 26.1 µM | GI50 [19]: 1.91 µM | TGI [19]: 4.28 µM | GI50 [20]: 4.17 µM | TGI [20]: 14.9 µM | GI50 [21]: 2.34 µM | TGI [21]: 5.7 µM | GI50 [22]: 5.89 µM | TGI [22]: 85 µM | GI50 [23]: 1.66 µM | TGI [23]: 4.09 µM | GI50 [24]: 1.62 µM | TGI [24]: 3.12 µM | GI50 [25]: 1.11 µM | TGI [25]: 2.56 µM | GI50 [26]: 0.501 µM | TGI [26]: 1.92 µM | GI50 [27]: 2.44 µM | TGI [27]: 6.84 µM | GI50 [28]: 2.63 µM | TGI [28]: 6.74 µM | GI50 [29]: 0.211 µM | TGI [29]: 0.427 µM | GI50 [30]: 1.55 µM | TGI [30]: 11 µM | GI50 [31]: 1.25 µM | TGI [31]: 2.91 µM | GI50 [32]: 10.4 µM | TGI [32]: 36.6 µM | GI50 [33]: 6.8 µM | TGI [33]: 24.3 µM | GI50 [34]: 2.98 µM | TGI [34]: 14.9 µM | GI50 [35]: 2.03 µM | TGI [35]: 7.65 µM | GI50 [36]: 1.91 µM | TGI [36]: 3.56 µM | GI50 [37]: 4.52 µM | TGI [37]: 23.7 µM | GI50 [38]: 1.29 µM | TGI [38]: 2.85 µM | GI50 [39]: 4.58 µM | TGI [39]: 17.6 µM | GI50 [40]: 0.414 µM | TGI [40]: 1.95 µM | GI50 [41]: 4.02 µM | TGI [41]: 33.7 µM | GI50 [42]: 1.8 µM | TGI [42]: 3.66 µM | GI50 [43]: 3.89 µM | TGI [43]: 22.5 µM | GI50 [44]: 3.27 µM | TGI [44]: 19.6 µM | GI50 [45]: 3.15 µM | TGI [45]: 15 µM | GI50 [46]: 2.01 µM | TGI [46]: 6.16 µM | GI50 [47]: 3.32 µM | TGI [47]: 13.4 µM | GI50 [48]: 2.07 µM | TGI [48]: 5.08 µM | GI50 [49]: 1.72 µM | TGI [49]: 3.24 µM | GI50 [50]: 2.25 µM | TGI [50]: 5.07 µM | GI50 [51]: 2.51 µM | TGI [51]: 7.1 µM | GI50 [52]: 2.88 µM | TGI [52]: 7.82 µM | GI50 [53]: 2.15 µM | TGI [53]: 8.1 µM | GI50 [54]: 3.7 µM | TGI [54]: 15.9 µM | GI50 [55]: 0.211 µM | TGI [55]: 0.44 µM
